Test results as given in patent publication US20230295580A1, “SPHEROID GENERATOR, SPHEROID CULTURE KIT, AND SPHEROID CULTURE METHOD” (RESEARCH AND BUSINESS FOUNDATION SUNGKYUNKWAN UNIVERSITY, priority 2020, published 2023).

Tested on: cancer cells of the spheroid
Assay: Spheroid culture with anticancer substance injected through sub-injection part; live/dead cancer cell viability
Type: cell-based
Settings: spheroid formed for 12 to 36 hours, then anticancer substance for 12 to 36 hours; increasing injected volume of TMZ; Dead/Live/Merge images, microscope
Description: Referring to FIG. 11 to FIG. 13, a spheroid generator 10 in which the size of a sub-injection part 18 is increased from one side to the other side of a culture plate 120 is disposed (S11). In this case, main injection parts 14 having the same size are formed in all of the spheroid generators 10.
A cancer cell solution 21 is prepared (S12). That is, the cancer cell solution 21 is prepared by mixing a plurality of cancer cells with a culture medium 24.
The cancer cell solution 21 is injected into the main injection parts 14 of the plurality of spheroid generators 10 (S13). In this case, since main injection parts 14 having the same size are formed in all of the spheroid generators 10, the same amount of the cancer cell solution 21 is injected into all of the main injection parts 14.
As the cancer cells of the cancer cell solution 21 are cultured in the plurality of spheroid generators 10, a spheroid 25 is formed (S14). In this case, the step of forming a spheroid 25 as the cancer cells of the cancer cell solution 21 are cultured in the plurality of spheroid generators 10 is performed for 12 to 36 hours.
An anticancer substance 23 is injected into a sub-injection part 18 of the plurality of spheroid generators 10 (S15). […]

## Cn1nnc2c(C(N)=O)ncn2c1=O [TMZ]
  relative viability of cancer cells: decreases
